# Measurements as given in patent EP1935986B1, “Luminogenic and fluorogenic compounds and methods to detect molecules or conditions” (priority 2005, dated 2006).
# What was measured:
# [1] = tested on: thermostable luciferase (Luc 146-1H2); assay: Thermostable luciferase reaction with luciferin derivatives: light readings; format: biochemical
# Protocol: (§1) This stock was used to produce enzyme stock solution having of 200 µg/ml enzyme solution in 1 mg/ml BSA, 200 mM HEPES buffer, pH 8.0, 20 mM MgCl2.
# (§2) Solutions were made using a 1 M DTT solution, pH adjusted to 8.0, a 20 mM Coenzyme A solution in water (both described in examples above), a 100 mM ATP solution and water to create the following solutions: Sol'A, 100 µM ATP; Sol'B, 100 µM ATP, 4 mM Coenzyme A; Sol'n C, 100 µM ATP, 400 mM DTT, and; Sol'n D, 100 µM ATP, 4 mM Coenzyme A and 400 mM DTT.
# The following reactions were prepared (Table 47) Table 47
# (§3) After assembly, the reactions were initiated by addition of 25 µl of the thermostable luciferase stock solution above and mixing the tube contents. A 50 µl sample was immediately removed and placed in a luminometer tube and the light read and the tube then replaced in a tube rack at room temperature. While the light reading was being taken, a 5 µl sample of the remaining reaction (which was kept at room temperature) was diluted into 495 µl of 50 mM BisTris, pH 6.5, 1 mg/ml BSA, 1 mM EDTA prechilled to 4°C and the tube mixed and placed on ice. The light produced by the samples in the luminometer tubes were re-read at 20, 40, 60, 90 and 120 minutes post enzyme addition. Additional 5 µl samples were taken and diluted as above at 60 and 120 minutes post enzyme addition. Once all these readings and samples were taken, 50 µl of the diluted samples was mixed with 50 µl of Steady Glo in luminometer tubes, the tubes incubated 10 minutes on ice then the light produced was read on a Turner TD 20/20 luminometer.
# [2] = tested on: thermostable luciferase (Luc 146-1H2); assay: Residual thermostable luciferase activity after reaction with luciferin derivatives (Steady Glo); format: biochemical
# Protocol: as §1, §2, §3
smiles,measurement,setting,value
O=C(O)[C@H]1CSC(c2nc3ccc(OCCCl)cc3s2)=N1 [L'in-CEE],light readings from the reaction samples,"[1]; substrate 6.25 (L'in-BE: 6.26), + Co A & DTT, Time 0 min",77.35
same,light readings from the reaction samples,"[1]; substrate 6.25 (L'in-BE: 6.26), + Co A & DTT, Time 20 min",7.958
same,light readings from the reaction samples,"[1]; substrate 6.25 (L'in-BE: 6.26), + Co A & DTT, Time 40 min",3.656
same,light readings from the reaction samples,"[1]; substrate 6.25 (L'in-BE: 6.26), + Co A & DTT, Time 60 min",2.312
same,light readings from the reaction samples,"[1]; substrate 6.25 (L'in-BE: 6.26), + Co A & DTT, Time 90 min",1.414
same,light readings from the reaction samples,"[1]; substrate 6.25 (L'in-BE: 6.26), + Co A & DTT, Time 120 min",1.134
same,light readings from the reaction samples,"[1]; substrate 6.25 (L'in-BE: 6.26), + Co A, Time 0 min",1829
same,light readings from the reaction samples,"[1]; substrate 6.25 (L'in-BE: 6.26), + Co A, Time 20 min",114
same,light readings from the reaction samples,"[1]; substrate 6.25 (L'in-BE: 6.26), + Co A, Time 40 min",57.82
same,light readings from the reaction samples,"[1]; substrate 6.25 (L'in-BE: 6.26), + Co A, Time 60 min",37.53
same,light readings from the reaction samples,"[1]; substrate 6.25 (L'in-BE: 6.26), + Co A, Time 90 min",24.66
same,light readings from the reaction samples,"[1]; substrate 6.25 (L'in-BE: 6.26), + Co A, Time 120 min",17.02
same,light readings from the reaction samples,"[1]; substrate 6.25 (L'in-BE: 6.26), + DTT, Time 0 min",72.52
same,light readings from the reaction samples,"[1]; substrate 6.25 (L'in-BE: 6.26), + DTT, Time 20 min",5.903
same,light readings from the reaction samples,"[1]; substrate 6.25 (L'in-BE: 6.26), + DTT, Time 40 min",3.073
same,light readings from the reaction samples,"[1]; substrate 6.25 (L'in-BE: 6.26), + DTT, Time 60 min",2.089
same,light readings from the reaction samples,"[1]; substrate 6.25 (L'in-BE: 6.26), + DTT, Time 90 min",1.431
same,light readings from the reaction samples,"[1]; substrate 6.25 (L'in-BE: 6.26), + DTT, Time 120 min",1.125
same,light readings from the reaction samples,"[1]; substrate 6.25 (L'in-BE: 6.26), Alone, Time 0 min",121
same,light readings from the reaction samples,"[1]; substrate 6.25 (L'in-BE: 6.26), Alone, Time 20 min",5.884
same,light readings from the reaction samples,"[1]; substrate 6.25 (L'in-BE: 6.26), Alone, Time 40 min",3.316
same,light readings from the reaction samples,"[1]; substrate 6.25 (L'in-BE: 6.26), Alone, Time 60 min",2.352
same,light readings from the reaction samples,"[1]; substrate 6.25 (L'in-BE: 6.26), Alone, Time 90 min",1.569
same,light readings from the reaction samples,"[1]; substrate 6.25 (L'in-BE: 6.26), Alone, Time 120 min",1.154
same,light readings from the reaction samples,"[1]; substrate 25, + Co A & DTT, Time 0 min",57.98
same,light readings from the reaction samples,"[1]; substrate 25, + Co A & DTT, Time 20 min",5.721
same,light readings from the reaction samples,"[1]; substrate 25, + Co A & DTT, Time 40 min",3.272
same,light readings from the reaction samples,"[1]; substrate 25, + Co A & DTT, Time 60 min",2.192
same,light readings from the reaction samples,"[1]; substrate 25, + Co A & DTT, Time 90 min",1.379
same,light readings from the reaction samples,"[1]; substrate 25, + Co A & DTT, Time 120 min",1.174
same,light readings from the reaction samples,"[1]; substrate 25, + Co A, Time 0 min",489.2
same,light readings from the reaction samples,"[1]; substrate 25, + Co A, Time 20 min",45.45
same,light readings from the reaction samples,"[1]; substrate 25, + Co A, Time 40 min",25.08
same,light readings from the reaction samples,"[1]; substrate 25, + Co A, Time 60 min",16.96
same,light readings from the reaction samples,"[1]; substrate 25, + Co A, Time 90 min",11.03
same,light readings from the reaction samples,"[1]; substrate 25, + Co A, Time 120 min",7.309
same,light readings from the reaction samples,"[1]; substrate 25, + DTT, Time 0 min",56.59
same,light readings from the reaction samples,"[1]; substrate 25, + DTT, Time 20 min",3.761
same,light readings from the reaction samples,"[1]; substrate 25, + DTT, Time 40 min",2.196
same,light readings from the reaction samples,"[1]; substrate 25, + DTT, Time 60 min",1.668
same,light readings from the reaction samples,"[1]; substrate 25, + DTT, Time 90 min",1.274
same,light readings from the reaction samples,"[1]; substrate 25, + DTT, Time 120 min",1.157
same,light readings from the reaction samples,"[1]; substrate 25, Alone, Time 0 min",59.87
same,light readings from the reaction samples,"[1]; substrate 25, Alone, Time 20 min",3.176
same,light readings from the reaction samples,"[1]; substrate 25, Alone, Time 40 min",1.919
same,light readings from the reaction samples,"[1]; substrate 25, Alone, Time 60 min",1.305
same,light readings from the reaction samples,"[1]; substrate 25, Alone, Time 90 min",1.178
same,light readings from the reaction samples,"[1]; substrate 25, Alone, Time 120 min",1.03
same,light readings from the reaction samples,"[1]; substrate 100, + Co A & DTT, Time 0 min",25.41
same,light readings from the reaction samples,"[1]; substrate 100, + Co A & DTT, Time 20 min",3.278
same,light readings from the reaction samples,"[1]; substrate 100, + Co A & DTT, Time 40 min",2.027
same,light readings from the reaction samples,"[1]; substrate 100, + Co A & DTT, Time 60 min",1.666
same,light readings from the reaction samples,"[1]; substrate 100, + Co A & DTT, Time 90 min",1.27
same,light readings from the reaction samples,"[1]; substrate 100, + Co A & DTT, Time 120 min",1.157
same,light readings from the reaction samples,"[1]; substrate 100, + Co A, Time 0 min",97.88
same,light readings from the reaction samples,"[1]; substrate 100, + Co A, Time 20 min",10.3
same,light readings from the reaction samples,"[1]; substrate 100, + Co A, Time 40 min",7.127
same,light readings from the reaction samples,"[1]; substrate 100, + Co A, Time 60 min",5.562
same,light readings from the reaction samples,"[1]; substrate 100, + Co A, Time 90 min",3.969
same,light readings from the reaction samples,"[1]; substrate 100, + Co A, Time 120 min",2.845
same,light readings from the reaction samples,"[1]; substrate 100, + DTT, Time 0 min",22.47
same,light readings from the reaction samples,"[1]; substrate 100, + DTT, Time 20 min",2.233
same,light readings from the reaction samples,"[1]; substrate 100, + DTT, Time 40 min",1.292
same,light readings from the reaction samples,"[1]; substrate 100, + DTT, Time 60 min",1.164
same,light readings from the reaction samples,"[1]; substrate 100, + DTT, Time 90 min",1.093
same,light readings from the reaction samples,"[1]; substrate 100, + DTT, Time 120 min",0.958
same,light readings from the reaction samples,"[1]; substrate 100, Alone, Time 0 min",20.46
same,light readings from the reaction samples,"[1]; substrate 100, Alone, Time 20 min",1.18
same,light readings from the reaction samples,"[1]; substrate 100, Alone, Time 40 min",0.868
same,light readings from the reaction samples,"[1]; substrate 100, Alone, Time 60 min",0.788
same,light readings from the reaction samples,"[1]; substrate 100, Alone, Time 90 min",0.627
same,light readings from the reaction samples,"[1]; substrate 100, Alone, Time 120 min",0.544
same,light values obtained upon addition of the diluted reaction samples into Steady Glo reagent,"[2]; Substrate 6.25, + Co A & DTT, Time Sample Taken 0 min",1836
same,light values obtained upon addition of the diluted reaction samples into Steady Glo reagent,"[2]; Substrate 6.25, + Co A & DTT, Time Sample Taken 60 min",1625
same,light values obtained upon addition of the diluted reaction samples into Steady Glo reagent,"[2]; Substrate 6.25, + Co A & DTT, Time Sample Taken 120 min",1622
same,light values obtained upon addition of the diluted reaction samples into Steady Glo reagent,"[2]; Substrate 6.25, + Co A, Time Sample Taken 0 min",1647
same,light values obtained upon addition of the diluted reaction samples into Steady Glo reagent,"[2]; Substrate 6.25, + Co A, Time Sample Taken 60 min",976.8
same,light values obtained upon addition of the diluted reaction samples into Steady Glo reagent,"[2]; Substrate 6.25, + Co A, Time Sample Taken 120 min",921.4
same,light values obtained upon addition of the diluted reaction samples into Steady Glo reagent,"[2]; Substrate 6.25, + DTT, Time Sample Taken 0 min",1631
same,light values obtained upon addition of the diluted reaction samples into Steady Glo reagent,"[2]; Substrate 6.25, + DTT, Time Sample Taken 60 min",1544
same,light values obtained upon addition of the diluted reaction samples into Steady Glo reagent,"[2]; Substrate 6.25, + DTT, Time Sample Taken 120 min",1695
same,light values obtained upon addition of the diluted reaction samples into Steady Glo reagent,"[2]; Substrate 6.25, Alone, Time Sample Taken 0 min",1402
same,light values obtained upon addition of the diluted reaction samples into Steady Glo reagent,"[2]; Substrate 6.25, Alone, Time Sample Taken 60 min",1158
same,light values obtained upon addition of the diluted reaction samples into Steady Glo reagent,"[2]; Substrate 6.25, Alone, Time Sample Taken 120 min",1073
same,light values obtained upon addition of the diluted reaction samples into Steady Glo reagent,"[2]; Substrate 25, + Co A & DTT, Time Sample Taken 0 min",529.6
same,light values obtained upon addition of the diluted reaction samples into Steady Glo reagent,"[2]; Substrate 25, + Co A & DTT, Time Sample Taken 60 min",1268
same,light values obtained upon addition of the diluted reaction samples into Steady Glo reagent,"[2]; Substrate 25, + Co A & DTT, Time Sample Taken 120 min",1329
same,light values obtained upon addition of the diluted reaction samples into Steady Glo reagent,"[2]; Substrate 25, + Co A, Time Sample Taken 0 min",1547
same,light values obtained upon addition of the diluted reaction samples into Steady Glo reagent,"[2]; Substrate 25, + Co A, Time Sample Taken 60 min",777.5
same,light values obtained upon addition of the diluted reaction samples into Steady Glo reagent,"[2]; Substrate 25, + Co A, Time Sample Taken 120 min",588.7
same,light values obtained upon addition of the diluted reaction samples into Steady Glo reagent,"[2]; Substrate 25, + DTT, Time Sample Taken 0 min",1116
same,light values obtained upon addition of the diluted reaction samples into Steady Glo reagent,"[2]; Substrate 25, + DTT, Time Sample Taken 60 min",1372
same,light values obtained upon addition of the diluted reaction samples into Steady Glo reagent,"[2]; Substrate 25, + DTT, Time Sample Taken 120 min",1393
same,light values obtained upon addition of the diluted reaction samples into Steady Glo reagent,"[2]; Substrate 25, Alone, Time Sample Taken 0 min",1345
same,light values obtained upon addition of the diluted reaction samples into Steady Glo reagent,"[2]; Substrate 25, Alone, Time Sample Taken 60 min",973.4
same,light values obtained upon addition of the diluted reaction samples into Steady Glo reagent,"[2]; Substrate 25, Alone, Time Sample Taken 120 min",860.3
